We go through 1 compound from patent US20140094510A1, “NON-AQUEOUS TAXANE NANODISPERSION FORMULATIONS AND METHODS OF USING THE SAME” (Teikoku Pharma USA, Inc., priority 2012, published 2014).

A short description of this series: Solubility of anhydrous docetaxel in PEG 300 / PEG 400. In kind it is physicochemical. As to conditions: per 1 g PEG 300; ultrasonic dispersion for 5 minutes at 70-80° C. Here is the method:
Formulations of anhydrous docetaxel and either PEG 400 or PEG 300 were prepared and mixed using ultrasonic dispersion for 5 minutes at 70-80° C. 1 g of PEG 400 dissolved 25 mg of anhydrous docetaxel. […] 1 g of PEG 300 dissolved 100 mg of anhydrous docetaxel. Accordingly, PEG 300 was able to better solubilize anhydrous docetaxel.

Bounds are passed on as bounds.

Regarding `CC(=O)O[C@@]12CO[C@@H]1C[C@H](O)[C@@]1(C)C(=O)[C@H](O)C3=C(C)[C@@H](OC(=O)[C@H](O)[C@@H](NC(=O)OC(C)(C)C)c4ccccc4)C[C@@](O)([C@@H](OC(=O)c4ccccc4)[C@H]21)C3(C)C` [anhydrous docetaxel, (2R,3S)—N-carboxy-3-phenylisoserine,Ntert-butyl ester, 13-ester with 5β-20-epoxy-1,2α,4,7β,10β,13α-hexahydroxytax-11-en-9-one 4-acetate 2-benzoate], the “amount of anhydrous docetaxel dissolved by 1 g of PEG 300” value is on record as no less than 100 mg.
